The text below walks through data of patent US6242425A, “Quinolinone glycoside, production process, and anti-allergic agent” (Dainippon Ink and Chemicals, Inc., priority 1998, dated 2001).

The subject of test [1] is homologous passive cutaneous anaphylaxis (PCA) reaction in rats. Put plainly: Effect on homologous passive cutaneous anaphylaxis (PCA) reaction in rats. Type of test: in vivo, rat (male wistar rats). Particulars: vs vehicle control. How it is done:
Effect on homologous passive cutaneous anaphylaxis (PCA) reaction in rats
This experimental animal model is caused by immediate type allergic reaction, namely, antigen-antibody reaction. In the following, the method of this pharmacological test will be explained.
Method: Male wistar rats (9 weeks old) were intradermally administered 0.05 ml of anti-serum against dinitrophenylated ascaris (DNP-As) into two sites on the shaved dorsal skin. 48 hours later, glycosyloxyquinolinone derivatives (test compounds) suspended in 0.5% methylcellulose (MC) were given i.v. at a dose of 0.5 mg/kg to the animals. 1 hour after administration of Test compounds, the animals were induced anaphylaxis by injection of saline (1 ml) dissolving 1 mg of trinitrophenylated ascaris (TNP-As) and 5 mg of Evans Blue into the tail vein of the animals. 30 minutes after induction of anaphylaxis, animals were anesthetized by ether and killed by bleeding, and were flayed dorsal skin. The leakage of dye was assessed by measuring the diameter (mean of shortest and longest diameter) of the blue spot on the inside surface of dorsal skin. As vehicle control group, only 0.5% MC solution was administered orally, and as positive control group, Tranilast suspended in 0.5% MC were administered orally at a dose of 100 mg/kg to the animals with the same method as the test compounds groups. Each experimental group consisted of 5 rats.
In the conditions of this experiment, it was considered that the compound, which inhibited PCA reaction by over forty (40) percent against that in vehicle control group, was evidently effective for immediate type allergy.
(§1) Inhibition (%)=(A-B)/A×100
A: leakage of dye in vehicle control group
B: leakage of dye in test compound group or positive control group

Test [2] concerns immediate type asthmatic response. Put plainly: Effect on experimental immediate type asthma model in guinea pigs (airway resistance). Type of test: in vivo, guinea pig (male hartley guinea pigs). To be noted: airway resistance 1 minute after challenge.
Text: (§2) Effect on experimental immediate and delayed type asthma model in guinea pigs
(§3) The asthma is typical allergic disease and we carried out this pharmacological test by experimental asthmatic model in guinea pigs in order to confirm that the compounds of the present invention, compound 14, 16, 20, 26 and 32, suppress immediate and delayed type asthmatic response. In the following, the method of the pharmacological test will be explained.
(§4) Method: Male hartley guinea pigs were sensitized by exposured aerosolized ovalbumine (OVA) (1% in saline) for 10 minutes per a day at eight times. The aerosol was generated by an ultrasonic nebulizer (NE-U12, Omron inc.). One week after final sensitization, the animals were challenged with inhalation of OVA (2% in saline) for 5 minutes. The animals were pretreated with metyrapone (10 mg/kg, i.v.) at 1 and 4 hours before the challenge, and pyrilamine (10 mg/kg, i.p.) at 30 minutes before the challenge. airway resistance in the conscious animals were measured for 1 minute with PULMOS-1 (made in Medical Interface Project Station Inc.) at 1 minute, 2, 4, 5, 6, 7, 8 and 23 to 24 hours after the challenge. Compound 14, 16, 20, 26 and 32 (test compound) suspended in 0.5% methylcellulose (MC) solution were given i.v. at doses of 0.2 and 0.5 mg/kg 1 hour before and 3 hours after the challenge. As a positive control group, Prednisolone was given orally at a dose of 10 mg/kg 2 hours and 16 hours before the challenge. As vehicle control group, only 0.5% MC solution was given orally.
(§5) The evaluation of the effect of the compounds on immediate and delayed type asthmatic response was undertaken with percentage of change in airway resistance 1 minute after the challenge and the area under the response curve for percentage of change in airway resistance between 4 and 8 hours after the challenge, respectively.
(§6) The inhibition (%) of the compounds for immediate and delayed type asthmatic response was calculated according to equation 2 and the result was shown in table 2. Each experimental group consisted of 8 guinea pigs.
as §1
(§7) A: percentage of change in airway resistance in vehicle control group
(§8) B: percentage of change in airway resistance in test compound group or positive control group

For test [3], the system named is delayed type asthmatic response. As to the kind of experiment: Effect on experimental delayed type asthma model in guinea pigs (airway resistance). Type of test: in vivo, guinea pig (male hartley guinea pigs). To be noted: AUC of airway resistance change 4-8 hours after challenge.
Text: as §2, §3, §4, §5, §6, §1, §7, §8

Setting [4] is: 0.5 mg/kg i.v., 1 hour before challenge.
Setting [5] is: 0.2 mg/kg i.v., 1 hour before and 3 hours after challenge.
The mark [6] stands for this setting: 0.5 mg/kg i.v., 1 hour before and 3 hours after challenge.
Setting [7] is: positive control, 10 mg/kg orally, 2 and 16 hours before challenge.

For the compound `CCCCCCCCOc1c(O[C@@H]2O[C@H](C(=O)O)[C@@H](O)[C@H](O)[C@H]2O)c2ccc(NC(=O)/C=C/c3cc(OC)c(O[C@@H]4O[C@H](C(=O)O)[C@@H](O)[C@H](O)[C@H]4O)c(OC)c3)cc2n(C)c1=O` [Compound 14], the “inhibition (%) of PCA reaction” value in test [1] (setting [4]) is 54%. Moreover, the “immediate type asthma inhibition %” value is 29% in test [2] (setting [5]) and 37% in test [2] (setting [6]). Further, the “delayed type asthma inhibition (%)” value in test [3] (setting [5]) came out at 64%; in test [3] (setting [6]), 73%.
With `CCCCCCCCOc1c(O)c2ccc(NC(=O)/C=C/c3cc(OC)c(O[C@@H]4O[C@H](C(=O)O)[C@@H](O)[C@H](O)[C@H]4O)c(OC)c3)cc2n(C)c1=O` [Compound 15, 7-[3,5-dimethoxy-4-(β-D-glucuropyranosyloxy)cinnamoyl]amino-3-octyloxy-4-hydroxy-1-methyl-2(1H)-quinolinone], in test [1] (setting [4]), the “inhibition (%) of PCA reaction” value is 42%.
Turning to `CCCCCCCCOc1c(O[C@@H]2O[C@H](C(=O)O)[C@@H](O)[C@H](O)[C@H]2O)c2ccc(NC(=O)/C=C/c3cc(OC)c(O)c(OC)c3)cc2n(C)c1=O` [Compound 16, 7-(3,5-dimethoxy-4-hydroxycinnamoyl)amino-3-octyloxy-4-(β-D-glcuropyranosyloxy)-1-methyl-2(1H)-quinolinone], the “inhibition (%) of PCA reaction” value in test [1] (setting [4]) is 41%. Besides, the entries for the “immediate type asthma inhibition %” value in test [2] (setting [5]) and in test [2] (setting [6]) were 22% and 26%, respectively. The “delayed type asthma inhibition (%)” value turned out to be 42% in test [3] (setting [5]) and 51% in test [3] (setting [6]).
As to `CCCCCCCCOc1c(O[C@@H]2O[C@H](CO)[C@@H](O)[C@H](O)[C@H]2O)c2ccc(NC(=O)/C=C/c3cc(OC)c(O[C@@H]4O[C@H](CO)[C@@H](O)[C@H](O)[C@H]4O)c(OC)c3)cc2n(C)c1=O` [Compound 20, 7-[3,5-dimethoxy-4-(β-D-glucopyranosyloxy)cinnamoyl]amino-3-octyloxy-4-(β-D-glucopyranosyloxy)-1-methyl-2(1H)-quinolinone], the “inhibition (%) of PCA reaction” value in test [1] (setting [4]) is reported as 49%. Also, the “immediate type asthma inhibition %” value in test [2] (setting [5]) was determined as 27%; in test [2] (setting [6]), 38%. For the same compound, the “delayed type asthma inhibition (%)” value in test [3] (setting [5]) amounted to 57%; in test [3] (setting [6]) it was 61%.
For the compound `CCCCCCCCOc1c(O)c2ccc(NC(=O)/C=C/c3cc(OC)c(O[C@@H]4O[C@H](CO)[C@@H](O)[C@H](O)[C@H]4O)c(OC)c3)cc2n(C)c1=O` [Compound 21, 7-[3,5-dimethoxy-4-(β-D-glucopyranosyloxy)cinnamoyl]amino-3-octyloxy-4-hydroxy-1-methyl-2(1H)-quinolinone], the “inhibition (%) of PCA reaction” value in test [1] (setting [4]) was 46%.
Same read-out and setting: the result for `CCCCCCCCOc1c(O[C@@H]2O[C@H](CO)[C@@H](O)[C@H](O)[C@H]2O)c2ccc(NC(=O)/C=C/c3cc(OC)c(O)c(OC)c3)cc2n(C)c1=O` [Compound 22, 7-(3,5-dimethoxy-4-hydroxycinnamoyl)amino-3-octyloxy-4-(β-D-glucopyranosyloxy)-1-methyl-2(1H)-quinolinone] reads 42%.
With `CCCCCCCCOc1c(O[C@@H]2O[C@H](CO)[C@H](O)[C@H](O)[C@H]2O)c2ccc(NC(=O)/C=C/c3cc(OC)c(O[C@@H]4O[C@H](CO)[C@H](O)[C@H](O)[C@H]4O)c(OC)c3)cc2n(C)c1=O` [Compound 26, 7-[3,5-dimethoxy-4-(β-D-galactopyranosyloxy)cinnamoyl]amino-3-octyloxy-4-(β-D-galactopyranosyloxy)-1-methyl-2(1H)-quinolinone], the “inhibition (%) of PCA reaction” value in test [1] (setting [4]) stood at 50%. In addition, the figures for the “immediate type asthma inhibition %” value in test [2] (setting [5]) and in test [2] (setting [6]) were 25% and 37%, respectively. Moreover, the entries for the “delayed type asthma inhibition (%)” value in test [3] (setting [5]) and in test [3] (setting [6]) were 52% and 63%, respectively.
As to `CCCCCCCCOc1c(O)c2ccc(NC(=O)/C=C/c3cc(OC)c(O[C@@H]4O[C@H](CO)[C@H](O)[C@H](O)[C@H]4O)c(OC)c3)cc2n(C)c1=O` [Compound 27, 7-[3,5-dimethoxy-4-(β-D-galactopyranosyloxy)cinnamoyl]amino-3-octyloxy-4-hydroxy-1-methyl-2(1H)-quinolinone], in test [1] (setting [4]), the “inhibition (%) of PCA reaction” value worked out at 46%.
With `CCCCCCCCOc1c(O[C@@H]2O[C@H](CO)[C@H](O)[C@H](O)[C@H]2O)c2ccc(NC(=O)/C=C/c3cc(OC)c(O)c(OC)c3)cc2n(C)c1=O` [Compound 28, 7-(3,5-dimethoxy-4-hydroxycinnamoyl)amino-3-octyloxy-4-(β-D-galactopyranosyloxy)-1-methyl-2(1H)-quinolinone], the “inhibition (%) of PCA reaction” value in test [1] (setting [4]) is reported as 43%.
As to `CCCCCCCCOc1c(O[C@H]2O[C@H](CO)[C@@H](O)[C@H](O)[C@@H]2O)c2ccc(NC(=O)/C=C/c3cc(OC)c(O[C@H]4O[C@H](CO)[C@@H](O)[C@H](O)[C@@H]4O)c(OC)c3)cc2n(C)c1=O` [Compound 32, 7-[3,5-dimethoxy-4-(α-D-mannopyranosyloxy)cinnamoyl]amino-3-octyloxy-4-(α-D-mannopyranosyloxy)-1-methyl-2(1H)-quinolinone], in test [1] (setting [4]), the “inhibition (%) of PCA reaction” value came to 45%. Moreover, the results for the “immediate type asthma inhibition %” value in test [2] (setting [5]) and in test [2] (setting [6]) were 26% and 34%, respectively. In addition, the “delayed type asthma inhibition (%)” value in test [3] (setting [5]) was determined as 49%; in test [3] (setting [6]) it was 57%.
Take `CCCCCCCCOc1c(O)c2ccc(NC(=O)/C=C/c3cc(OC)c(O[C@H]4O[C@H](CO)[C@@H](O)[C@H](O)[C@@H]4O)c(OC)c3)cc2n(C)c1=O` [Compound 33, 7-[3,5-dimethoxy-4-(α-D-mannopyranosyloxy)cinnamoyl]amino-3-octyloxy-4-hydroxy-1-methyl-2(1H)-quinolinone]: in test [1] (setting [4]), the “inhibition (%) of PCA reaction” value is 40%.
With `CCCCCCCCOc1c(O[C@H]2O[C@H](CO)[C@@H](O)[C@H](O)[C@@H]2O)c2ccc(NC(=O)/C=C/c3cc(OC)c(O)c(OC)c3)cc2n(C)c1=O` [Compound 34, 7-(3,5-dimethoxy-4-hydroxycinnamoyl)amino-3-octyloxy-4-(α-D-mannopyranosyloxy)-1-methyl-2(1H)-quinolinone], the “inhibition (%) of PCA reaction” value in test [1] (setting [4]) is given as 42%.
Regarding `C[C@]12C=CC(=O)C=C1CC[C@@H]1[C@@H]2[C@@H](O)C[C@@]2(C)[C@H]1CC[C@]2(O)C(=O)CO` [Prednisolone, reference compound], the “immediate type asthma inhibition %” value in test [2] (setting [7]) is 27%. The “delayed type asthma inhibition (%)” value in test [3] (setting [7]) is 69%.
`COc1ccc(/C=C/C(=O)Nc2ccccc2C(=O)O)cc1OC` [Tranilast, reference compound]: the “inhibition (%) of PCA reaction” value in test [1] (positive control, 100 mg/kg orally) was 52%.
